Test results reported in patent publication US20260240755A1, “Use Of Plant Cell Suspension Extracellular Vesicle-Derived Small Rnas As Cosmetic Active Ingredient” (ACTV BiYOTEKNOLOJi LABORATUVAR SANAYi VE TiCARET ANONiM …, priority 2023, published 2026).

Key:
[1] = tested on: H. cordata cell suspension; experiment: Elicitor effect on amount of small RNA from cell suspension EVs; assay type: cell-based, Houttuynia cordata; conditions: for amount of RNA obtained from nutrient medium EVs compared to the control group: elicitor added on the 14th day, 0.2-0.8 mM, 1-3 days
[2] = tested on: H. cordata cell suspension; experiment: Elicitor effect on cell suspension biomass (lyophilized cell weight); assay type: cell-based, Houttuynia cordata; conditions: elicitor treatment
Procedure: On the 14th day of the culture, the cell suspension medium was supplemented with 0.2-0.4 and 0.8 mM MeJA or SA, and the suspensions were subjected to additional incubation for 1, 2, and 3 days. After the incubation periods of H. cordata cell suspension cultures were completed, the cells were passed through a filter, and the cultures were terminated. Subsequently, cells from all groups were lyophilized. The weights of the lyophilized cells were measured and recorded.

SMILES | amount of RNA obtained from nutrient medium EVs compared to the control group [1] | quantity of H. cordata cell suspensions (lyophilized cell weight) compared to the control group [2] | amount of small RNA obtained ([1]; 0.2 mM MeJA for 72 hours) [ng/µL] | amount of small RNA relative to the control group ([1]; 0.2 mM MeJA for 72 hours) [times]
O=C(O)c1ccccc1O [SA, Salicylic acid] | did not result in a significant increase | No statistically significant difference | – | –
CC/C=C\CC1C(=O)CCC1CC(=O)OC (stereo not drawn) [MeJA, Methyl jasmonate] | led to an increase | No statistically significant difference | 3000 | 1.9
